{"source": "patent US8980823B2", "about": "“Formulations of Factor VIIa inhibitors and utility” (priority 2012, dated 2015)", "system": "Laser-induced CNV", "test": "Laser-induced Choroidal Neovascularization (CNV) model", "assay_type": "in vivo, brown Norway rats", "settings": "single i-v injection on D0, evaluated D10; r-TFPI 0.2 ug; VIIa-i (Compound A-NO NP) 5.08 ug", "protocol": "For Choroidal Neovascularization (CNV) induction in rats, brown Norway rats were anesthetized and pupils dilated. Argon red laser photocoagulation (50-um spot size, 0.05 sec duration) was used to generate 4 laser spots for each eye surrounding the optic nerve. A bubble forms at the laser spot indicating rupture of Bruch's membrane. The laser spots were evaluated for the presence of CNV on day 10 after laser treatment using confocal microscopy. Administration of test compounds: Immediately after CNV induction, test compounds were given once by intravitreal injection, i-v (VIIa-i versus r-TFPI). For characterization of efficacy in preventing laser-induced CNV in the eyes of rats, the incidence of CNV-positive or CNV-negative spots was determined by confocal microscopy. Rats were perfused with a FITC-dextran solution just prior to sacrifice. After the eyes were excised and choroidal flat mounts prepared, the mounts were stained with a mAb against mouse or rat elastin and then with CY3-conjugated secondary antibody. The prominent neovascular growth stains green whereas the underlying elastin in the Bruch's membrane stains red within the laser spot. The inhibition of new vessel growth is indicated by the absence of vessels with a green stain, and the size of the CNV is measured using Image Pro plus Software. […] Animals were sacrificed on D10, and CNV evaluated as described in methods.", "note": "Entries after “also recorded” stand apart in the source; their conditions may differ.", "data": [{"substance": "r-TFPI: recombinant tissue factor pathway inhibitor", "values": [{"measurement": "inhibition of laser-induced CNV", "result": "highly effective in inhibiting laser-induced CNV; also recorded: significant reduction in neovascular growth"}]}]}
